# Earlier results in patent US10426724B2, “Antihistamine compositions, combinations, and use thereof” (APTAPHARMA INC., priority 2016, dated 2019).
# Molecular target: histamine H1-receptors (Homo sapiens, UniProt P35367)
# Details: from time of administration to symptomatic relief; Annals of Allergy, Asthma, & Immunology (1997), 79
# Chain of histamine H1-receptors (P35367 whole entry): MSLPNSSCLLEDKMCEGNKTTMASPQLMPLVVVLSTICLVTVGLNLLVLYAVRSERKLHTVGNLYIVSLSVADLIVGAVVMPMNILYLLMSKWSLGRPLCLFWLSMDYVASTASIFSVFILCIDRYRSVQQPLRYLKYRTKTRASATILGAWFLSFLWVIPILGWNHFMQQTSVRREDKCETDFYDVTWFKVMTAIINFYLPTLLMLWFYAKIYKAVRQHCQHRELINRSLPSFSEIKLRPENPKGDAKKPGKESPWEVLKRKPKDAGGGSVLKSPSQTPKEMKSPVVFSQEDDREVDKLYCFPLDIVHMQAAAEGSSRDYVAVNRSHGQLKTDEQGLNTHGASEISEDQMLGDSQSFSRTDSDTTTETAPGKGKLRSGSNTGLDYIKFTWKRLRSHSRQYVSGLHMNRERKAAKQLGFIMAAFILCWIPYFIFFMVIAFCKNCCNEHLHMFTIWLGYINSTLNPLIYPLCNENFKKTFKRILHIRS
smiles,measurement,value
O=C(O)COCCN1CCN(C(c2ccccc2)c2ccc(Cl)cc2)CC1 (stereo not shown) [cetirizine],lag time before onset of action,several hours
